Results: PubChem BioAssay AID248 (DTP/NCI, 2004)
Values joined by “and” are separate entries in the source; they are usually repeats but may differ in a detail not shown here. Identical values can stand only once. Toxic doses and inconclusive results are not listed. Cut-off read from the data, not from the text of the source: active = T/C of 150% or more; inactive = T/C below 125%.

System: L1210 leukemia ip in BDF1 mice, survival T/C
Assay: NCI In Vivo Anticancer Drug Screen. Data for tumor model L1210 Leukemia (intraperitoneal) in B6D2F1 (BDF1) mice
Conditions: endpoint: mean survival time, higher = longer survival
Method in brief: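 Value reflects the ratio of survival in compound-treated mice to survival in vehicle-treated controls, with both groups carrying the same transplanted tumor.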

[1] = dose: 50.0 mg/kg/injection, schedule: Q04DX003 (ip), vehicle: saline with Tween-80
[2] = dose: 100.0 mg/kg/injection, schedule: Q01DX009 (ip), vehicle: saline with Tween-80
[3] = dose: 100.0 mg/kg/injection, schedule: Q04DX003 (ip), vehicle: saline with Tween-80
[4] = dose: 200.0 mg/kg/injection, schedule: Q01DX009 (ip), vehicle: saline with Tween-80
[5] = dose: 400.0 mg/kg/injection, schedule: Q01DX009 (ip), vehicle: saline with Tween-80
[6] = dose: 25.0 mg/kg/injection, schedule: Q01DX009 (ip), vehicle: Klucel (hydroxypropylcellulose) (HPC)
[7] = dose: 25.0 mg/kg/injection, schedule: Q04DX003 (ip), vehicle: Klucel (hydroxypropylcellulose) (HPC)
[8] = dose: 50.0 mg/kg/injection, schedule: Q04DX003 (ip), vehicle: Klucel (hydroxypropylcellulose) (HPC)
[9] = dose: 100.0 mg/kg/injection, schedule: Q01DX009 (ip), vehicle: Klucel (hydroxypropylcellulose) (HPC)
[10] = dose: 100.0 mg/kg/injection, schedule: Q04DX003 (ip), vehicle: Klucel (hydroxypropylcellulose) (HPC)
[11] = dose: 200.0 mg/kg/injection, schedule: Q01DX009 (ip), vehicle: Klucel (hydroxypropylcellulose) (HPC)
[12] = dose: 200.0 mg/kg/injection, schedule: Q04DX003 (ip), vehicle: Klucel (hydroxypropylcellulose) (HPC)
[13] = dose: 400.0 mg/kg/injection, schedule: Q01DX009 (ip), vehicle: Klucel (hydroxypropylcellulose) (HPC)
[14] = dose: 400.0 mg/kg/injection, schedule: Q04DX003 (ip), vehicle: Klucel (hydroxypropylcellulose) (HPC)
[15] = dose: 50.0 mg/kg/injection, schedule: Q01DX009 (ip), vehicle: Klucel (hydroxypropylcellulose) (HPC)

Measured: T/C

CN(C)N=Nc1ccc(C(F)(F)F)cc1
inactive: dose: 50.0 mg/kg/injection, schedule: Q01DX001 (ip), vehicle: saline with Tween-80 97 % of control | dose: 50.0 mg/kg/injection, schedule: Q01DX009 (ip), vehicle: saline with Tween-80 94 % of control | [1] 98 % of control | dose: 100.0 mg/kg/injection, schedule: Q01DX001 (ip), vehicle: saline with Tween-80 103 % of control | [2] 94 % of control | [3] 98 % of control | dose: 200.0 mg/kg/injection, schedule: Q01DX001 (ip), vehicle: saline with Tween-80 105 % of control | [4] 97 % of control | dose: 200.0 mg/kg/injection, schedule: Q04DX003 (ip), vehicle: saline with Tween-80 101 % of control | dose: 400.0 mg/kg/injection, schedule: Q01DX001 (ip), vehicle: saline with Tween-80 101 % of control | [5] 98 % of control | dose: 400.0 mg/kg/injection, schedule: Q04DX003 (ip), vehicle: saline with Tween-80 98 % of control

S=C=Nc1ccc(Cl)cc1
inactive: dose: 25.0 mg/kg/injection, schedule: Q04DX003 (ip), vehicle: saline with Tween-80 107 % of control | [1] 96 % of control | [3] 95 % of control and 101 % of control

O=C1C2CCN(CC2)C1C(c1ccccc1)c1ccccc1 (centres undefined)
inactive: dose: 100.0 mg/kg/injection, schedule: Q04DX003 (ip), vehicle: saline 96 % of control | dose: 200.0 mg/kg/injection, schedule: Q04DX003 (ip), vehicle: saline 102 % of control | dose: 400.0 mg/kg/injection, schedule: Q04DX003 (ip), vehicle: saline 100 % of control

O=C(O)c1ccc(C(=O)c2ccc([N+](=O)[O-])cc2)cc1
inactive: dose: 25.0 mg/kg/injection, schedule: Q01DX009 (ip), vehicle: carboxymethylcellulose (CMC) 102 % of control and 104 % of control | dose: 50.0 mg/kg/injection, schedule: Q01DX009 (ip), vehicle: carboxymethylcellulose (CMC) 95 % of control and 108 % of control | dose: 100.0 mg/kg/injection, schedule: Q01DX001 (ip), vehicle: carboxymethylcellulose (CMC) 92 % of control and 97 % of control | dose: 100.0 mg/kg/injection, schedule: Q01DX009 (ip), vehicle: carboxymethylcellulose (CMC) 95 % of control and 102 % of control | dose: 100.0 mg/kg/injection, schedule: Q04DX002 (ip), vehicle: carboxymethylcellulose (CMC) 101 % of control and 102 % of control | dose: 100.0 mg/kg/injection, schedule: Q04DX003 (ip), vehicle: carboxymethylcellulose (CMC) 105 % of control and 114 % of control | dose: 200.0 mg/kg/injection, schedule: Q01DX001 (ip), vehicle: carboxymethylcellulose (CMC) 98 % of control and 100 % of control | dose: 200.0 mg/kg/injection, schedule: Q04DX002 (ip), vehicle: carboxymethylcellulose (CMC) 93 % of control and 95 % of control | dose: 200.0 mg/kg/injection, schedule: Q04DX003 (ip), vehicle: carboxymethylcellulose (CMC) 97 % of control and 98 % of control | dose: 400.0 mg/kg/injection, schedule: Q01DX001 (ip), vehicle: carboxymethylcellulose (CMC) 93 % of control and 100 % of control | dose: 400.0 mg/kg/injection, schedule: Q01DX009 (ip), vehicle: carboxymethylcellulose (CMC) 104 % of control | dose: 400.0 mg/kg/injection, schedule: Q04DX002 (ip), vehicle: carboxymethylcellulose (CMC) 95 % of control and 98 % of control | dose: 400.0 mg/kg/injection, schedule: Q04DX003 (ip), vehicle: carboxymethylcellulose (CMC) 96 % of control and 88 % of control

O=c1cc(Cc2ccc([N+](=O)[O-])cc2)[nH]c(=O)[nH]1
inactive: dose: 50.0 mg/kg/injection, schedule: Q01DX001 (ip), vehicle: saline 101 % of control | dose: 100.0 mg/kg/injection, schedule: Q01DX001 (ip), vehicle: saline 107 % of control | dose: 200.0 mg/kg/injection, schedule: Q01DX001 (ip), vehicle: saline 115 % of control | dose: 400.0 mg/kg/injection, schedule: Q01DX001 (ip), vehicle: saline 115 % of control

COC(=O)c1ccccc1Nc1ccccc1[N+](=O)[O-]
inactive: dose: 75.0 mg/kg/injection, schedule: Q04DX003 (ip), vehicle: Klucel (hydroxypropylcellulose) (HPC) 101 % of control | dose: 100.0 mg/kg/injection, schedule: Q01DX001 (ip), vehicle: Klucel (hydroxypropylcellulose) (HPC) 100 % of control | dose: 150.0 mg/kg/injection, schedule: Q04DX003 (ip), vehicle: Klucel (hydroxypropylcellulose) (HPC) 87 % of control | dose: 200.0 mg/kg/injection, schedule: Q01DX001 (ip), vehicle: Klucel (hydroxypropylcellulose) (HPC) 95 % of control | dose: 300.0 mg/kg/injection, schedule: Q04DX003 (ip), vehicle: Klucel (hydroxypropylcellulose) (HPC) 90 % of control | dose: 400.0 mg/kg/injection, schedule: Q01DX001 (ip), vehicle: Klucel (hydroxypropylcellulose) (HPC) 113 % of control

O=[N+]([O-])c1cc(S(=O)(=O)OCC2CO2)ccc1Cl (centres undefined)
inactive: dose: 6.25 mg/kg/injection, schedule: Q04DX003 (ip), vehicle: Klucel (hydroxypropylcellulose) (HPC) 98 % of control | dose: 12.5 mg/kg/injection, schedule: Q01DX009 (ip), vehicle: Klucel (hydroxypropylcellulose) (HPC) 96 % of control | dose: 12.5 mg/kg/injection, schedule: Q04DX003 (ip), vehicle: Klucel (hydroxypropylcellulose) (HPC) 98 % of control | [6] 90 % of control | [7] 101 % of control | [8] 103 % of control

O=C(NNC(=O)OCCCl)OCCCl
inactive: dose: 111.0 mg/kg/injection, schedule: Q01DX Z (ip), vehicle: methylcellulose (MC) 107 % of control | dose: 166.0 mg/kg/injection, schedule: Q01DX Z (ip), vehicle: methylcellulose (MC) 92 % of control | dose: 250.0 mg/kg/injection, schedule: Q01DX Z (ip), vehicle: methylcellulose (MC) 107 % of control

O=C(O)c1ccc(NC(=O)c2ccc(F)cc2)cc1
inactive: [2] 94 % of control | [4] 96 % of control | [5] 105 % of control

Cc1ccc(N=C(c2ccc([N+](=O)[O-])cc2)c2ccc([N+](=O)[O-])cc2)cc1
inactive: [9] 97 % of control | [10] 96 % of control | [11] 96 % of control | [12] 102 % of control | [13] 102 % of control | [14] 96 % of control

CC(O)C[As](=O)(O)c1ccccc1 (centres undefined)
inactive: dose: 12.5 mg/kg/injection, schedule: Q04DX002 (ip), vehicle: saline 103 % of control | dose: 25.0 mg/kg/injection, schedule: Q04DX002 (ip), vehicle: saline 100 % of control

CCN(CC)c1ccc(C2NC(=O)c3ccccc3N2)cc1 (centres undefined)
inactive: [15] 106 % of control and 108 % of control | [9] 116 % of control | dose: 150.0 mg/kg/injection, schedule: Q01DX009 (ip), vehicle: Klucel (hydroxypropylcellulose) (HPC) 104 % of control and 117 % of control

COC(=O)c1c[nH]c2ccccc2c1=O
inactive: [9] 106 % of control | [10] 96 % of control | [11] 95 % of control | [12] 107 % of control | [13] 108 % of control | [14] 91 % of control

Cc1cccc(C)c1NC(=O)N(Cc1ccccc1)Cc1ccccc1
inactive: [9] 98 % of control | [11] 112 % of control | [13] 110 % of control

COc1cc(OC)c(NC(=O)C2CC2)cc1Cl
inactive: [9] 110 % of control | [11] 104 % of control | [13] 110 % of control

COc1cc(CCN2CCN(c3cc(C)ccc3Cl)CC2)cc(OC)c1OC
inactive: dose: 100.0 mg/kg/injection, schedule: Q01DX001 (ip), vehicle: other 93 % of control | dose: 200.0 mg/kg/injection, schedule: Q01DX001 (ip), vehicle: other 97 % of control | dose: 400.0 mg/kg/injection, schedule: Q01DX001 (ip), vehicle: other 97 % of control

CCCCN(CCCC)CC(=O)Nc1ccc(C(=O)OCC(C)C)cc1
inactive: dose: 20.0 mg/kg/injection, schedule: Q01DX Z (ip), vehicle: saline 97 % of control | dose: 30.0 mg/kg/injection, schedule: Q01DX Z (ip), vehicle: saline 98 % of control | dose: 45.0 mg/kg/injection, schedule: Q01DX Z (ip), vehicle: saline 106 % of control | dose: 68.0 mg/kg/injection, schedule: Q01DX Z (ip), vehicle: saline 97 % of control

O=C(SCC(NSc1ccccc1[N+](=O)[O-])C(=O)O)c1ccccc1 (centres undefined)
inactive: dose: 12.0 mg/kg/injection, schedule: Q04DX003 (ip), vehicle: Klucel (hydroxypropylcellulose) (HPC) 90 % of control | [6] 95 % of control | [7] 95 % of control | [15] 98 % of control | [8] 95 % of control | [9] 98 % of control
